Test results taken from patent US20230072528A1, “METHODS FOR DISCONTINUING A TREATMENT WITH A TYROSINE KINASE INHIBITOR (TKI)” (INSERM (Institut National de la Santé et de la Recherche …, priority 2020, published 2023).

Test system: innate CD8(+) T-cells
Test: Ex vivo flow cytometry of peripheral blood CD8(+) T-cell subsets in CML patients under therapy (DASA-PEGIFN phase II trial)
Design: species or system human
Details: for innate CD8(+) T-cell frequency (mean±SD): 3 months after initiation of therapy
Experimental: The phase II DASA-PEGIFN clinical trial was registered with EudraCT number 2012-003389-42. Briefly, newly diagnosed Ph^+ CP-CML patients were treated first-line with dasatinib at 100 mg/day. At 3 months, they were assigned to receive Peg-IFNα2b associated to dasatinib when platelets>100×109/L, neutrophils>1.5×10^9/L and lymphocytes<4.0×109/L counts were achieved. Venous blood was collected on heparin at several time points: diagnosis, 3, 6, 12 and 24 months after initiation of treatment Among the 61 patients receiving Dasatinib+Peg-IFNα2b therapy, we analysed samples from 40 patients. Two out of them were excluded for technical issues. See Table 1 for detailed patient's characteristics. Patients response to treatment were classified conforming to 2013 ELN criteria. Major molecular response was defined as a ratio of BCR-ABL1/ABL1≤0.1% on the international scale (IS). A ratio of BCR-ABL1/ABL1IS≤0.01% defined a molecular response of 4-log reduction or in our work a deep molecular response (DMR). All patients gave informed consent in accordance with the Declaration of Helsinki for participation in the study, which was approved by the scientific committee of the INSERM CIC-1402 (Poitiers, France) and Comité Protection Personnes Recherche Biomédicale Région Poitou Charentes (protocol number 12.10.31).
Peripheral blood mononuclear cells (PBMC) were isolated from blood samples by density gradient centrifugation (Histopaque®-1077, Sigma-Aldrich, St Louis, Mo., US), resuspended in 90% Fetal Bovine Serum (10270106, Gibco®, Thermo Fisher Scientific, Waltham, Mass., US) with 10% DMSO (D2650, Sigma-Aldrich), and cryopreserved at −80° C. or in liquid nitrogen until use.
Phenotypic analysis of cells from HD and CML patients was performed by ex vivo flow cytometry. All monoclonal antibodies (mAbs) used in this study are listed in Supplementary Table 2. The expression of the different markers was assessed by staining PBMC with appropriate combinations of mAbs. panKIR/NKG2A referred to staining with the mix of the three following antibodies from Miltenyi Biotec (Bergisch Gladbach, Germany) KIR2D, KIR3DL1/KIR3DL2 (CD158e/k) and NKG2A (CD159a). Dead cells were excluded using the Live/Dead® Fixable NearIR Dead Cell Stain kit (L10119, Invitrogen™, Thermo Fisher Scientific). For intranuclear Eomes staining, cells were permeabilized with anti-human Foxp3 staining kit according to the manufacturer's protocol (73-5776-40, eBioscience™, Thermo Fisher Scientific). Flow data were acquired on a FACSVerse flow cytometer (Becton, Dickinson & Compagny, Franklin Lakes, N.J., US) with FACSuite™ software (Becton, Dickinson & Compagny) and analyzed using FlowJo™ v10 (Becton, Dickinson & Compagny). Results are expressed as either percent positive cells or as mean fluorescence intensity (MFI).
Results are shown as box and whiskers with 5 percentile, median and 95 percentile unless indicated otherwise. All statistical data analyses were performed using GraphPad Prism v7.0 (GraphPad software, Inc). Wilcoxon and Mann-Whitney two-tailed test were used for paired and unpaired data analysis, respectively. A p value<0.05 was considered significant. Cumulative response rates were calculated using the cumulative incidence approach and Mantle-Cox method. The cut-off point for innate CD8(+) T-cells was optimized by receiver operating characteristics (ROC) curves and the Youden index using the logarithm of innate CD8(+) T-cell frequency at diagnosis and after 3 months of therapy. Patients were dichotomized according to their low or high percentage of innate CD8(+) T-cells. Data are presented as Kaplan-Meier curves.

[1] = after 3 months of therapy as compared to diagnosis

For `Cc1nc(Nc2ncc(C(=O)Nc3c(C)cccc3Cl)s2)cc(N2CCN(CCO)CC2)n1` [dasatinib, N-(2-chloro-6-methylphenyl)-2-[[6-[4-(2-hydroxyethyl)-1-piperazinyl]-2-methyl-4-pyrimidinyl]amino]-5-thiazole-carboxamide monohydrate], which “innate CD8(+) T-cell frequency (mean±SD)” value (M12-DMR group (DMR achieved at 12 months)) is on record?
The value was 9.14±6.54%.

And the “innate CD8(+) T-cell frequency (mean±SD)” value (M12-noDMR group (no DMR at 12 months))?
Its value is 3.48±2.43%.

And the “frequency of innate CD8(+) T-cells (mean±SD)” value (CML patients, whole group, after 3 months of therapy, among total CD8+TCR-αβ+ cells, 3.78±3.39% at diagnosis)?
The value was 5.98±5.43%.

And the “Eomes and CD49d expression levels of innate CD8(+) T-cells” value [1]?
The value was “significant increase”.

What about the “conventional-memory CD8(+) T-cell frequency” value [1] of the same compound?
The value was “concomitantly increased”.

And the “naive CD8(+) T-cell frequency” value [1]?
The value was “decreased”.
